The values that follow come from ChEMBL document CHEMBL4184110 (Bioorg Med Chem Lett, 2018).

For data set [1], the target named is T1, Vitamin D3 receptor (Homo sapiens, UniProt P11473).
T1 sequence (P11473 whole entry): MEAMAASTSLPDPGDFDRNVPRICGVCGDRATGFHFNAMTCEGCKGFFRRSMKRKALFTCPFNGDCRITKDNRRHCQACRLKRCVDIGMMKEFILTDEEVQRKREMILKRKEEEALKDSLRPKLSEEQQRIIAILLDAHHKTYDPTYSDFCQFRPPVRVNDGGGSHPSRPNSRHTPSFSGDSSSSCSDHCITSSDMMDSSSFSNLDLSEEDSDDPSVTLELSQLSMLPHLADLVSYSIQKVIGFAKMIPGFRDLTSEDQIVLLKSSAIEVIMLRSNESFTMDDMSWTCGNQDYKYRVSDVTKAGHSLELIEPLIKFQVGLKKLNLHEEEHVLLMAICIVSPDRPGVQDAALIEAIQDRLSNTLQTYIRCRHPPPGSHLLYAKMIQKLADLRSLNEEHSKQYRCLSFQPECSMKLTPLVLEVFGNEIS
In words: Antagonist activity at VP16-fused VDR-LBD (unknown origin) expressed in HEK293T cells assessed as inhibition of ligand-induced GAL4-fused SRC1 coactivator recruitment by two-hybrid luciferase reporter gene assay. The data set is classed as cell-based. For orientation: In a reporter assay the amount or activity of a reporter protein is the signal.

For data set [2], the target named is T1, Vitamin D3 receptor. The data set can be described thus: Antagonist activity at VDR-LBD (unknown origin) assessed as inhibition of LG190178-induced recruitment of alexa fluor 647-labeled SRC2-3 after 30 mins by fluorescence polarization assay. In general terms: Polarisation of emitted light reports the rotation of a fluorescent probe.
In data set [3] the target is T2, Estrogen receptor (Homo sapiens, UniProt P03372).
T2 sequence (P03372 whole entry): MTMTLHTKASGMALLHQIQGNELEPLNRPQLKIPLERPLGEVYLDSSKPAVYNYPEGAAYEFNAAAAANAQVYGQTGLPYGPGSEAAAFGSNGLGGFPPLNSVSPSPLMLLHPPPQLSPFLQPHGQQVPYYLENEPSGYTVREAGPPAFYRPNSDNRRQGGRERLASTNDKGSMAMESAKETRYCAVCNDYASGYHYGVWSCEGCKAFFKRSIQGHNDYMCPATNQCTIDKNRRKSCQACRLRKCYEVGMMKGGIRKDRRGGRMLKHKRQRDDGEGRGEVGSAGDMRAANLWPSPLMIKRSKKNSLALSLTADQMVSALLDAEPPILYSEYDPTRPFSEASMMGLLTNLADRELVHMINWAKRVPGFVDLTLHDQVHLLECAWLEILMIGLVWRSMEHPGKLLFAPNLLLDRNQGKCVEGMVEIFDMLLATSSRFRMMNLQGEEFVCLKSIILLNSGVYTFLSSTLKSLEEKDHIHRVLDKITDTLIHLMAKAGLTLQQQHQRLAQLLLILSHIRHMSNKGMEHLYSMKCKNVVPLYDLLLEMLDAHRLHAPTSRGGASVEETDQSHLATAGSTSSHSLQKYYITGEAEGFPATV
The data set can be described thus: Antagonist activity at CMV-fused ERalpha-LBD-GAL4-DBD (unknown origin) expressed in HEK293T cells assessed as inhibition of estradiol-induced receptor transactivation after 16 hrs by bright-Glo luciferase reporter gene assay. It counts as cell-based.

Data set [4] deals with T3, Thyroid hormone receptor beta (Homo sapiens, UniProt P10828).
T3 sequence (P10828 whole entry): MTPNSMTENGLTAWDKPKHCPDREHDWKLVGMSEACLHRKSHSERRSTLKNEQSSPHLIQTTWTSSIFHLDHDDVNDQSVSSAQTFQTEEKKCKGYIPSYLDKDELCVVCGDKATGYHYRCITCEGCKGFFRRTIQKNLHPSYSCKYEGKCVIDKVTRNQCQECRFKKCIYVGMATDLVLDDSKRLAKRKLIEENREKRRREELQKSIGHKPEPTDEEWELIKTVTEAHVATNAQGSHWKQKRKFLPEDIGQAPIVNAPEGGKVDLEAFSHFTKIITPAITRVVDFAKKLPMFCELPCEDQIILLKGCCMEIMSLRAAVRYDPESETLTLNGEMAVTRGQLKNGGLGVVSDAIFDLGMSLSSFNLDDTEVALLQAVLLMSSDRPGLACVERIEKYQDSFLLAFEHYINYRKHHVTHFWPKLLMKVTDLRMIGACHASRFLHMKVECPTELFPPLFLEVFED
In words: Antagonist activity at CMV-fused TRbeta-LBD-GAL4-DBD (unknown origin) expressed in HEK293T cells assessed as inhibition of T3-induced receptor transactivation after 16 hrs by bright-Glo luciferase reporter gene assay. It counts as cell-based.

Data set [5] has as its target T4, Peroxisome proliferator-activated receptor delta (Homo sapiens, UniProt Q03181).
T4 sequence (Q03181 whole entry): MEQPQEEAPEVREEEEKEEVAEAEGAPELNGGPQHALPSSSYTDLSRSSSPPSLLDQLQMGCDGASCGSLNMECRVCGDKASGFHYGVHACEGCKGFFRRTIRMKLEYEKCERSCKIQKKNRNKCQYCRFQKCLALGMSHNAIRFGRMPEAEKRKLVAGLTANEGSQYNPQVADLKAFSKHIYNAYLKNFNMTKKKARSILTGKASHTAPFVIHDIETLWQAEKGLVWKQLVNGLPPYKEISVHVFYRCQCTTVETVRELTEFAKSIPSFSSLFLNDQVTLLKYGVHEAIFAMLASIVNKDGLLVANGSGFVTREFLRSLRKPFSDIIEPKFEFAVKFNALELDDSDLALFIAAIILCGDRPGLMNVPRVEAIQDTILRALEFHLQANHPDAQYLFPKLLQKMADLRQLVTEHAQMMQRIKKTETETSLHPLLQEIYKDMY
The data set can be described thus: Transactivation of CMV-fused PPARdelta-LBD-GAL4-DBD (unknown origin) expressed in HEK293T cells by luciferase reporter gene assay. It counts as cell-based.

Data set [6] deals with HEK-293T. The data set can be described thus: Cytotoxicity against HEK293T cells assessed as decrease in cell viability at 100 uM after 18 hrs by Cell Titer-Glo based luminescence assay relative to control. To be noted: human. For orientation: Cellular ATP, detected with luciferase, serves as a proxy for viable cell number.
Data set [7] has as its target T5, Retinoic acid receptor RXR-alpha (Homo sapiens, UniProt P19793).
T5 sequence (P19793 whole entry): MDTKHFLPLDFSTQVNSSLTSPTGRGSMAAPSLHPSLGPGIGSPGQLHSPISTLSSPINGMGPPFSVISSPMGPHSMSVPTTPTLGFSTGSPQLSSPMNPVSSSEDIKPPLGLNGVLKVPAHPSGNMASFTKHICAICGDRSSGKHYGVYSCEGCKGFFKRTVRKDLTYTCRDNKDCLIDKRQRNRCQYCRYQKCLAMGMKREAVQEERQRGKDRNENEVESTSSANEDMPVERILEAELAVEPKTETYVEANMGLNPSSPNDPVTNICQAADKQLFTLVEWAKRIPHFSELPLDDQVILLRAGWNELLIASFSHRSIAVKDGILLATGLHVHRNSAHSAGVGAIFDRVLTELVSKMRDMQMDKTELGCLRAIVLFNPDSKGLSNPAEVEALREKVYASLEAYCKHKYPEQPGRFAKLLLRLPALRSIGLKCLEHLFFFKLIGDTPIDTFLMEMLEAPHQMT
In words: Antagonist activity at CMV-fused RXRalpha-LBD-GAL4-DBD (unknown origin) expressed in HEK293T cells assessed as inhibition of bexarotene-induced receptor transactivation after 16 hrs by bright-Glo luciferase reporter gene assay. It counts as cell-based.

The structures appear in SMILES notation.

Regarding `COC(=O)Cc1ccc(OCc2oc(-c3cccc(OC)c3)nc2C)cc1`, the IC50 in data set [1] is 13.9 µM; in data set [2], “Not Active”; in data set [3], 1.7 µM; in data set [4], 0.97 µM; in data set [7], 2 µM. Besides, the EC50 entry in data set [5] is “Not Active”. In addition, the Activity in data set [6] was 63.4%.

In the case of `COC(=O)c1cccc(OCc2oc(-c3ccccc3OC)nc2C)c1`, the concentration for half-maximal inhibition (IC50) is 7.33 µM in data set [1]; “Not Active” in data set [2]; 5.2 µM in data set [3]; 9.8 µM in data set [4]; 11.1 µM in data set [7]. Further, the EC50 entry in data set [5] is reported as “Not Active”. The Activity in data set [6] is 39.5%.

In the case of `COC(=O)c1ccc(OCc2oc(-c3cccc(OC)c3)nc2C)cc1`, the half-maximal inhibitory concentration (IC50) in data set [1] was 8.89 µM; in data set [2] it was “Not Active”; in data set [3], 4.7 µM; in data set [4] it was 8.8 µM; in data set [7] it was 4.6 µM. Moreover, in data set [5], the EC50 result was “Not Active”. Further, the Activity in data set [6] is listed as 35.6%.

In the case of `COC(=O)Cc1ccc(OCc2oc(-c3ccccc3OC)nc2C)cc1`, the IC50 in data set [1] is 11.1 µM; in data set [2], “Not Active”; in data set [3], 4.1 µM; in data set [4], 7.6 µM; in data set [7], 4.4 µM. In data set [5], the EC50 result is recorded as “Not Active”. In addition, the Activity in data set [6] worked out at 31.2%.

Usually IC50 stands for the concentration that gives 50% inhibition.
